Measurements from ChEMBL document CHEMBL1144378, “Analogues of the neuroprotective tripeptide Gly-Pro-Glu (GPE): synthesis and structure-activity relationships” (Bioorg Med Chem Lett, 2005).
The source made the active and inactive calls. No cut-off for these calls is given here.

The compounds below were run against Glutamate NMDA receptor (assay: Displacement of L-[3H]glutamate from N-methyl-D-aspartate glutamate receptor in rat brain synaptic membranes). Conditions: not given.
Format: cell membranes, Membrane
With `N[C@H](CCCP(=O)(O)O)C(=O)O` the Ki was 3.83 µM.

What follows are compounds tested against Glutamate NMDA receptor (Rattus norvegicus) (UniProt P35439+Q00959+Q00960+Q00961+Q62645+Q8VHN2+Q9R1M7) (assay: Displacement of L-[3H]glutamate from N-methyl-D-aspartate glutamate receptor in rat brain synaptic membranes; No displacement up to 100 uM). Conditions: Membrane.
Format: cell membranes
For `NCC(=O)N1CCC[C@H]1C(=O)N[C@H](CCC(=O)O)C(=O)O`, the Activity was “inactive”. With `CC1(C)SC[C@H](C(=O)N[C@@H](CCC(=O)O)C(=O)O)N1C(=O)CN` the Activity was “inactive”. For `NCC(=O)N1CCC[C@@H]1C(=O)N[C@@H](CCC(=O)O)C(=O)O`, the Activity was “inactive”. With `NCC(=O)N1CSC[C@@H]1C(=O)N[C@@H](CCC(=O)O)C(=O)O` the Activity was “inactive”. With `NCC(=O)N1CCC[C@@H]1C(=O)N[C@H](CCC(=O)O)C(=O)O` the Activity was “inactive”. `NCC(=O)N1CCC[C@H]1C(=O)N[C@@H](CCCC(=O)O)C(=O)O` was tested, and the Activity was “inactive”. For `NCC(=O)N1CCC[C@H]1C(=O)N[C@H](CC(=O)O)C(=O)O`, the Activity was “inactive”. In the case of `NCC(=O)N1CCC[C@H]1C(=O)N[C@H](CCCC(=O)O)C(=O)O`, the Activity is reported as “inactive”. For `NCC(=O)N1CCC[C@H]1C(=O)N[C@@H](CC(=O)O)C(=O)O`, the Activity was “inactive”.
